Counter-ions that a name gives are not always drawn.
How the values were obtained:
[1] = test system: patients with severe pulmonary arterial hypertension; test: Clinical trial AC-052-355: vital signs (systolic blood pressure, heart rate), change from baseline to week 16; details: human, in vivo
Protocol: (§1) This was a double-blind, randomized, placebo-controlled study to assess the effects of bosentan on hemodynamics, safety and tolerability in patients with severe pulmonary arterial hypertension when combined with the initiation of epoprostenol therapy.
(§2) Study design: The duration of the study was 16 weeks, 2:1 bosentan:placebo randomization. All patients received the starting epoprostenol dose of 2 ng/kg/min for 2 days, then they were randomized to receive either bosentan or placebo. Every 2 weeks thereafter, epoprostenol was increased by 2 ng/kg/min up to the target dose of 14±2 ng/kg/min by week 16. All patients received epoprostenol together with either bosentan or placebo for 16 weeks. Hemodynamic assessments were performed at baseline (prior to start of therapy) and again after 16 weeks of therapy. Safety monitoring was performed throughout the study duration.
(§3) Secondary endpoints: Changes from baseline to week 16 in CI (Cardiac Index), PVR (Pulmonary Vascular Resistance), […] (mean pulmonary arterial pressure), and mRAP (mean right atrial pressure); changes from baseline to week 16 in walk distance (6-min walk test), dyspnea fatigue rating, WHO functional class; and safety and tolerability.
(§4) Thirty-three patients entered the study: 11 patients received epoprostenol alone, while 22 patients received bosentan with epoprostenol.

[2] = test system: patients with severe pulmonary arterial hypertension; test: Clinical trial AC-052-355: treatment emergent adverse events; assay type: in vivo; details: 16 weeks
Protocol: as §1, §2, §3, §4

[3] = test system: patients with severe pulmonary arterial hypertension; test: Clinical trial AC-052-355: hemodynamic efficacy, change from baseline to week 16; assay type: in vivo; details: change from baseline at week 16
Protocol: as §1, §2
Primary endpoint: Percent change from baseline in total pulmonary resistance (TPR) to week 16. The sample size was estimated for an expected mean difference in TPR of 28%.
as §3, §4
In Table 1 the results are expressed as changes from baseline at week 16. Mean±SD (standard deviation) and median change (in brackets).

CCCCC[C@H](O)/C=C/[C@@H]1[C@H]2C/C(=C/CCCC(=O)O)O[C@H]2C[C@H]1O [Epoprostenol alone, (5Z, 9α, 111α, 13E, 15)-6,9-epoxy-11,15-dihydroxyprosta-5,13-dien-1-oic acid, sodium salt]
Heart Rate (bpm), median change from baseline to week 16 [1]: 7.0 bpm
Systolic blood pressure (mmHg), change from baseline to week 16 [1]: −9.8 ± 10.9%
FLUSHING, % ([2]; human, in vivo): 45.5%
FLUSHING, No. ([2]; human, in vivo): 5
HYPOTENSION, % ([2]; human, in vivo): 18.2%
HYPOTENSION, No. ([2]; human, in vivo): 2
PAIN IN JAW, % ([2]; human, in vivo): 90.9%
PAIN IN JAW, No. ([2]; human, in vivo): 10
HEADACHE, No. ([2]; number of patients with the adverse event, 11 patients epoprostenol alone, 22 bosentan with epoprostenol): 4
HEADACHE, % ([2]; percent of patients with the adverse event): 36.4%
CI, % mean change ([3]; cardiac index, mean (SD in the next cell)): 37.9%
CI, absolute change ([3]; mean (SD in the next cell)): 0.57 L/min/m^2
TPR, absolute change ([3]; mean (SD in the next cell)): −386 dyn*sec/cm^5
mPAP, absolute change ([3]; mean (SD in the next cell)): −1.6 mmHg
CI, % median change ([3]; median (in brackets)): (30.0%)
TPR, % median change ([3]; median (in brackets)): (−14.3%)
mRAP, absolute change ([3]; mean right atrial pressure, mean (SD in the next cell)): 0.3 mmHg
TPR, % mean change ([3]; total pulmonary resistance, mean (SD in the next cell)): −22.6%

— patent US20040102361A1, “Pharmaceutical composition for the treatment of pulmonary arterial hypertension” (priority 2002, published 2004)
